# Experimental data from patent US4341790A, “Pyrrolidinylalkylcarboxylic acid amide derivatives, their preparation and pharmaceutical compositions containing them” (A. Nattermann & Cie. GmbH, priority 1979, dated 1982).
# “Also recorded” adds a separate entry of the source. Where two headings read alike, the source gives them in different places.
# Tests used:
# male mice = assay type: in vivo
# Source text: (§1) 2. Prolongation of the cerebral survival time in the case of hypoxaemia caused by sub-atmospheric pressure.
# (§2) This neuropathological behaviour is induced in male mice by a progressive reduction of the pressure to 26.66 kPa in an observation chamber and is used as an indicator of the cerebral hypoxia period. It ends in the death of the experimental animal.
# [1] = Tranquillising properties; assay type: in vivo; conditions: in words
# [2] = Cerebral protection / vaso-active and metabolism-regulating properties (overall); assay type: in vivo, mice; conditions: in words
# Protocol: The following methods have been used to investigate the pharmacodynamic properties of the compounds according to the invention:
# 1. Prolongation of cerebral survival time under hypoxaemia caused by NaNO2.
# Starting from the results of Gibson and Blass (J. Neurochemistry 27, 1976), a cerebral hypoxia is produced in male mice by means of NaNO2 (225 mg/kg, subcutaneous). The cerebral hypoxia period is marked by a characteristic spasmodic behaviour and ends in the death of the experimental animals.
# as §1, §2
# 3. Protection against amnesia induced by electric shock.
# Starting from the results of Taber and Banuazizi (Psychopharmakologia 9, 1966), male mice are taught not to enter a certain compartment of the cage in order to avoid an electric shock. The response is extinguished by means of an electric shock administered via head electrodes (electric shock amnesia).
# [3] = LD50 / toxicity and toleration; assay type: in vivo, mice; conditions: mouse, in vivo, mice
# mice = test: LD50 / toxicity and toleration; assay type: in vivo; conditions: in words
# thrombocytes = test: Inhibition of aggregation of thrombocytes; conditions: in words
structure (smiles),measurement,setting,value
"C(=C\c1ccccc1)/CN1CCN(C(c2ccccc2)c2ccccc2)CC1 [Cinnarizine, cinnarizine]",Sub-atmospheric pressure hypoxaemia,male mice; po,-
"Cc1cccc(C)c1NC(=O)CN1CCCC1=O [Example 6, 2-Oxo-1-pyrrolidinylacetic acid, 2,6-dimethylanilide]",tranquillising properties,[1],good tranquillising properties
same,"activity / effectiveness (vaso-active, metabolism-regulating, cerebral protection)",[2],highly active; also recorded: excellent activity
same,"activity / effectiveness (vaso-active, metabolism-regulating, cerebral protection)","[2]; listed as 2-Oxo-1-pyrrolidinylacetic acid-2,6-dimethylanilide",particularly effective
same,LD50,"[3]; iv, administered intravenously",421 mg/kg
same,LD50,"[3]; po, administered orally",1770 mg/kg
same,toleration,mice,well tolerated; also recorded: good toleration
same,toxicity,mice,very low toxicity
same,effect of inhibiting aggregation of thrombocytes,thrombocytes,inhibiting aggregation of thrombocytes
same,Sub-atmospheric pressure hypoxaemia,male mice; po,+
"CN(C)CCOC(=O)COc1ccc(Cl)cc1 [Meclofenoxate, meclofenoxate]",Sub-atmospheric pressure hypoxaemia,male mice; po,-
"O=C(CN1CCCC1=O)Nc1ccccc1 [PA, 2-oxo-1-pyrrolidinylacetic acid anilide, reference compound]","activity / effectiveness (vaso-active, metabolism-regulating, cerebral protection)",[2],exhibits none of these effects
same,Sub-atmospheric pressure hypoxaemia,male mice; po,-
"COc1ccc(Cc2nccc3cc(OC)c(OC)cc23)cc1OC [Papaverine, papaverine]",Sub-atmospheric pressure hypoxaemia,male mice; iv,-
"NC(=O)CN1CCCC1=O [Piracetam, piracetam]",Sub-atmospheric pressure hypoxaemia,male mice; po,+
"CC(C)NCC(O)COc1cccc2ccccc12 (stereo not drawn) [Propranol, propranolol]",Sub-atmospheric pressure hypoxaemia,male mice; po,-
"Cc1ncc(CSSCc2cnc(C)c(O)c2CO)c(CO)c1O [Pyritinol, pyritinol]",Sub-atmospheric pressure hypoxaemia,male mice; po,-
"CC[C@]12CCCN3CCc4c(n(c5ccccc45)[C@@](O)(C(=O)OC)C1)[C@@H]32 [Vincamine, vincamine]",Sub-atmospheric pressure hypoxaemia,male mice; po,+
